The test system of this assay is Aβ42 production. Description: Quantification of Aβ peptide in neuronal culture from rat fetus brain (Aβ ELISA). The assay is classed as cell-based. The settings on record: 72 h; rat primary neuronal culture (cerebral cortex, embryonic day 18 Wistar rats); medium collected three days after addition of the compound; Aβx-42 ELISA; read-out: Aβ42 production reducing effect IC50. The method, then:
Quantification of Aβ Peptide in Neuronal Culture from Rat Fetus Brain
(1) Rat Primary Neuronal Culture
Primary neuronal cultures were prepared from the cerebral cortex of embryonic day 18 Wistar rats (Charles River Japan, Yokohama, Japan). Specifically, the embryos were aseptically removed from pregnant rats under ether anesthesia. The brain was isolated from the embryo and immersed in an ice-cold L-15 medium (such as Invitrogen Corp. Cat #11415-064, Carlsbad, Calif., USA, or SIGMA L1518). The cerebral cortex was collected from the isolated brain under a stereoscopic microscope. The cerebral cortex fragments collected were enzymatically treated in an enzyme solution containing 0.25% trypsin (Invitrogen Corp. Cat #15050-065, Carlsbad, Calif., USA) and 0.01% DNase (Sigma D5025, St. Louis, Mo., USA) at 37° C. for 30 minutes to disperse the cells. Here, the enzymatic reaction was stopped by adding inactivated horse serum to the solution. The enzymatically treated solution was centrifuged at 1,500 rpm for five minutes to remove the supernatant. 5 to 10 ml of a medium was added to the resulting cell mass. Neurobasal medium (Invitrogen Corp. Cat #21103-049, Carlsbad, Calif., USA) supplemented with 2% B27 supplement (Invitrogen Corp. Cat #17504-044, Carlsbad, Calif., USA), 25 μM 2-mercaptoethanol (2-ME, WAKO Cat #139-06861, Osaka, Japan), 0.5 mM L-glutamine (Invitrogen Corp. Cat #25030-0817 Carlsbad, Calif., USA), and Antibiotics-Antimycotics (Invitrogen Corp. Cat #15240-062, Carlsbad, Calif., USA) was used as the medium (Neurobasal/B27/2-ME). However, the above Neurobasal medium not supplemented with 2-ME (Neurobasal/B27) was used for the assay. The cells were redispersed by mild pipetting of the cell mass to which the medium was added. The cell dispersion was filtered through a 40-μm nylon mesh (Cell Strainer, Cat #35-2340, Becton Dickinson Labware, Franklin Lakes, N.J., USA) to remove the remaining cell mass, and thus a neuronal cell suspension was obtained. The neuronal cell suspension was diluted with the medium and then plated in a volume of 100 μl/well at an initial cell density of 5×10^5 cells/cm^2 in a 96-well polystyrene culture plate pre-coated with poly-L or D-lysine (Falcon Cat #35-3075, Becton Dickinson Labware, Franklin Lakes, N.J., USA coated with poly-L-lysine using the method shown below, or BIOCOAT™ cell environments Poly-D-lysine cell ware 96-well plate, Cat #35-6461, Becton Dickinson Labware, Franklin Lakes, N.J., USA). Poly-L-lysine coating was carried out as follows. 100 μg/ml of a poly-L-lysine (SIGMA P2636, St. Louis, Mo., USA) solution was aseptically prepared with a 0.15 M borate buffer. (pH 8.5). […] of the solution was added to the 96-well polystyrene culture plate and incubated at room temperature for one or more hours or at 4° C. overnight or longer. The coated 96-well polystyrene culture plate was washed with sterile water four or more times, and then dried or rinsed with, for example, sterile PBS or medium, and used for cell plating. The plated cells were cultured in the culture plate at 37° C. in 5% CO2-95% air for one day. Then, the total amount of the medium was replaced with a fresh Neurobasal™/B27/2-ME medium, and then the cells were cultured for further three days.
The drug was added to the culture plate on Day 4 of culture as follows. The total amount of the medium was removed from the wells, and 180 μl/well of Neurobasal medium not containing 2-ME and containing 2% B-27 (Neurobasal/B27) was added thereto. A solution of the test compound in dimethyl sulfoxide (hereinafter abbreviated as DMSO) was diluted with Neurobasal/B27 to a concentration 10-fold higher than the final concentration. 20 μl/well of the dilution was added to and sufficiently mixed with the medium. The final DMSO concentration was 1% or less. Only DMSO was added to the control group.
The cells were cultured for three days after addition of the compound, and the total amount of the medium was collected. […]
In general terms: In an ELISA, binding on a coated surface is turned into a signal by an enzyme label.

Molecules are shown by their SMILES.

By IC50 is commonly meant the concentration at which inhibition is half-maximal. Turning to `COc1cc(/C=C2\O[C@@H](C)CN(C(C)(C)c3ccc(F)cc3)C2=O)ccc1-n1cnc(C)n1` [Example 17, (Z)-(6S)-4-[1-(4-fluorophenyl)-1-methylethyl]-2-[1-[3-methoxy-4-(3-methyl[1,2,4]triazol-1-yl)phenyl]methylidene]-6-methylmorpholin-3-one], the IC50 was 180 nM.
The figure for `COc1cc(/C=C2\OC(C)(C)CN([C@H](c3cc(F)c(F)c(F)c3)[C@@H](C)O)C2=O)ccc1-n1cnc(C)n1` [Example 19, (Z)-4-[(1R,2R)-2-hydroxy-1-(3,4,5-trifluorophenyl)propyl]-2-[1-[3-methoxy-4-(3-methyl[1,2,4]triazol-1-yl)phenyl]methylidene]-6,6-dimethylmorpholin-3-one] is 150 nM.
With `COc1cc(/C=C2\CC[C@H]3CCC[C@@H](c4ccc(F)cc4)N3C2=O)ccc1-n1cnc(C)n1` [Example 28, (E)-(6S,9aR)-6-(4-fluorophenyl)-3-{1-[3-methoxy-4-(3-methyl[1,2,4]triazol-1-yl)phenyl]methylidene}octahydroquinolizin-4-one], the IC50 turned out to be 440 nM.
As for `COc1cc(/C=C2\O[C@@H](C)CN([C@H](c3cc(F)c(F)c(F)c3)[C@@H](C)O)C2=O)ccc1-n1cnc(C)n1` [Example 18, (Z)-(6S)-4-[(1R,2R)-2-hydroxy-1-(3,4,5-trifluorophenyl)propyl]-2-[1-[3-methoxy-4-(3-methyl[1,2,4]triazol-1-yl)phenyl]methylidene]-6-methylmorpholin-3-one], the IC50 came out at 160 nM.
`COc1cc(/C=C2\CCCN([C@H](c3cc(F)c(F)c(F)c3)[C@@H](C)O)C2=O)ccc1-n1cnc(C)n1` [Example 21, (E)-1-[(1R,2R)-2-hydroxy-1-(3,4,5-trifluorophenyl)propyl]-3-[1-[3-methoxy-4-(3-methyl[1,2,4]triazol-1-yl)phenyl]methylidene]piperidin-2-one]: the IC50 is 60 nM.
For `COc1cc(/C=C2\CC(C)(C)CN([C@@H](C)c3ccc(F)cc3)C2=O)ccc1-n1cnc(C)n1` [Example 27, (E)-1-[(S)-1-(4-fluorophenyl)ethyl]-3-[1-[3-methoxy-4-(3-methyl[1,2,4]triazol-1-yl)phenyl]methylidene]-5,5-dimethylpiperidin-2-one], the IC50 came out at 270 nM.
With `COc1cc(/C=C2\CCCN([C@@H](C)c3cc(F)c(F)c(F)c3)C2=O)ccc1-n1cnc(C)n1` [Example 6, (E)-3-[1-[3-methoxy-4-(3-methyl[1,2,4]triazol-1-yl)phenyl]methylidene]-1-[(S)-1-(3,4,5-trifluorophenyl)ethyl]piperidin-2-one], the IC50 came to 320 nM.
Turning to `COc1cc(/C=C2\OCCN([C@H](c3cc(F)c(F)c(F)c3)[C@@H](C)O)C2=O)ccc1-n1cnc(C)n1` [Example 20, (Z)-4-[(1R,2R)-2-hydroxy-1-(3,4,5-trifluorophenyl)propyl]-2-[1-[3-methoxy-4-(3-methyl[1,2,4]triazol-1-yl)phenyl]methylidene]morpholin-3-one], the IC50 stood at 210 nM.
For `COc1cc(/C=C2\CCCN([C@H](c3ccc(F)cc3)[C@@H](C)O)C2=O)ccc1-n1cnc(C)n1` [Example 22, (E)-1-[(1R,2R)-1-(4-fluorophenyl)-2-hydroxypropyl]-3-{1-[3-methoxy-4-(3-methyl[1,2,4]triazol-1-yl)phenyl]methylidene}piperidin-2-one], the IC50 stood at 50 nM.
Consider `COc1cc(/C=C2\OC(C)(C)CN([C@H](c3ccc(F)cc3)[C@@H](C)O)C2=O)ccc1-n1cnc(C)n1` [Example 23, (Z)-4-[(1R,2R)-1-(4-fluorophenyl)-2-hydroxypropyl]-2-[1-[3-methoxy-4-(3-methyl[1,2,4]triazol-1-yl)phenyl]methylidene]-6,6-dimethylmorpholin-3-one], for which the IC50 is 400 nM.
For `COc1cc(/C=C2\CC[C@H]3CC[C@@H](c4ccc(F)c(F)c4)N3C2=O)ccc1-n1cnc(C)n1` [Example 26, (E)-(3S,8aS)-3-(3,4-difluorophenyl)-6-[3-methoxy-4-(3-methyl[1,2,4]triazol-1-yl)benzylidene]hexahydroindolizin-5-one], the IC50 was 380 nM.
For the molecule `COc1cc(/C=C2\O[C@@H](C)CN([C@H](c3ccc(F)cc3)[C@@H](C)O)C2=O)ccc1-n1cnc(C)n1` [Example 24, (6S)-(Z)-4-[(1R,2R)-1-(4-fluorophenyl)-2-hydroxypropyl]-2-[1-[3-methoxy-4-(3-methyl[1,2,4]triazol-1-yl)phenyl]methylidene]-6-methylmorpholin-3-one], the IC50 was determined as 290 nM.

The values above are taken from patent US20090203697A1, “HETEROCYCLIC TYPE CINNAMIDE DERIVATIVE” (priority 2006, published 2009).
